PubChem BioAssay AID1745844 (Carcinogenic Potency Database (CPDB), 2022)
Calls of active or inactive are those of the source. The rule behind the calls is not given here.

Tested on: rodent lifetime carcinogenesis bioassay, tumor incidence TD50
Test: carcinogenic potency in animals, long-term in vivo studies, CPDB compilation (AID 1745844)

In the case of `CN(C)c1ccc(C(=C2C=CC(=[N+](C)C)C=C2)c2ccc(N(C)C)cc2)cc1`, the TD50 (mouse, strain B6C3F1, females, in feed, site: Harderian gland, lesion: adenoma, dosed 107 weeks, study length 107 weeks) is reported as 305 mg/kg/day, the TD50 (mouse, strain B6C3F1, females, in feed, site: liver, lesion: hepatocellular adenoma, dosed 78 weeks, study length 78 weeks) is reported as 115 mg/kg/day and the TD50 (mouse, strain B6C3F1, females, in feed, site: liver, lesion: hepatocellular adenoma, dosed 107 weeks, study length 107 weeks) is reported as 75.5 mg/kg/day. For the same compound, the TD50 (mouse, strain B6C3F1, females, in feed, site: liver, lesion: hepatocellular carcinoma, dosed 78 weeks, study length 78 weeks) was 343 mg/kg/day, the TD50 (mouse, strain B6C3F1, females, in feed, site: liver, lesion: hepatocellular carcinoma, dosed 107 weeks, study length 107 weeks) was 57.9 mg/kg/day and the carcinogen call (mouse, strain B6C3F1, females, in feed, site: liver, lesion: one or several types, types not named, dosed 52 weeks, study length 52 weeks) was “negative (inactive)”. It also gave a TD50 (mouse, strain B6C3F1, females, in feed, site: ovary, lesion: reticulum-cell sarcoma, type A, dosed 107 weeks, study length 107 weeks) of 912 mg/kg/day, a TD50 (mouse, strain B6C3F1, females, in feed, site: urinary bladder, lesion: reticulum-cell sarcoma, type A, dosed 107 weeks, study length 107 weeks) of 834 mg/kg/day and a TD50 (mouse, strain B6C3F1, females, in feed, site: uterus, lesion: reticulum-cell sarcoma, type A, dosed 107 weeks, study length 107 weeks) of 413 mg/kg/day. For the same compound, the TD50 (mouse, strain B6C3F1, females, in feed, site: vagina, lesion: reticulum-cell sarcoma, type A, dosed 107 weeks, study length 107 weeks) was 668 mg/kg/day, the TD50 (mouse, strain B6C3F1, males, in feed, site: Harderian gland, lesion: adenoma, dosed 107 weeks, study length 107 weeks) was 615 mg/kg/day and the carcinogen call (mouse, strain B6C3F1, males, in feed, site: liver, lesion: hepatocellular adenoma, dosed 52 weeks, study length 52 weeks) was “negative (inactive)”. The TD50 (mouse, strain B6C3F1, males, in feed, site: liver, lesion: hepatocellular adenoma, dosed 78 weeks, study length 78 weeks) was 636 mg/kg/day (inactive), the TD50 (mouse, strain B6C3F1, males, in feed, site: liver, lesion: hepatocellular adenoma, dosed 107 weeks, study length 107 weeks) was 139 mg/kg/day and the carcinogen call (mouse, strain B6C3F1, males, in feed, site: liver, lesion: hepatocellular carcinoma, dosed 78 weeks, study length 78 weeks) was “negative (inactive)”. For the same compound, the TD50 (mouse, strain B6C3F1, males, in feed, site: liver, lesion: hepatocellular carcinoma, dosed 107 weeks, study length 107 weeks) was 222 mg/kg/day.
In the case of `O=C1NCCN1`, the TD50 (mouse, strain B6AKF1, females, oral dosing, site: any site (literature study), lesion: several types, types named in the paper, dosed 76 weeks, study length 76 weeks) is reported as 473 mg/kg/day (inactive), the carcinogen call (mouse, strain B6AKF1, females, oral dosing, site: liver, lesion: hepatoma, dosed 76 weeks, study length 76 weeks) is reported as “negative (inactive)” and the TD50 (mouse, strain B6AKF1, females, oral dosing, site: lung, lesion: adenoma, dosed 76 weeks, study length 76 weeks) is reported as 505 mg/kg/day (inactive). For the same compound, the carcinogen call (mouse, strain B6AKF1, males, oral dosing, site: any site (literature study), lesion: several types, types named in the paper, dosed 76 weeks, study length 76 weeks) was “negative (inactive)”, the TD50 (mouse, strain B6AKF1, males, oral dosing, site: liver, lesion: hepatoma, dosed 76 weeks, study length 76 weeks) was 500 mg/kg/day (inactive) and the carcinogen call (mouse, strain B6AKF1, males, oral dosing, site: lung, lesion: adenoma, dosed 76 weeks, study length 76 weeks) was “negative (inactive)”. For the same compound, the carcinogen call (mouse, strain B6C3F1, females, oral dosing, site: any site (literature study), lesion: one or several types, types not named, dosed 76 weeks, study length 76 weeks) was “negative (inactive)”, the carcinogen call (mouse, strain B6C3F1, females, oral dosing, site: liver, lesion: hepatoma, dosed 76 weeks, study length 76 weeks) was “negative (inactive)” and the carcinogen call (mouse, strain B6C3F1, females, oral dosing, site: lung, lesion: several types, types named in the paper, dosed 76 weeks, study length 76 weeks) was “negative (inactive)”. For the same compound, the TD50 (mouse, strain B6C3F1, males, oral dosing, site: any site (literature study), lesion: several types, types named in the paper, dosed 76 weeks, study length 76 weeks) was 87.1 mg/kg/day (inactive), the TD50 (mouse, strain B6C3F1, males, oral dosing, site: liver, lesion: hepatoma, dosed 76 weeks, study length 76 weeks) was 242 mg/kg/day (inactive) and the TD50 (mouse, strain B6C3F1, males, oral dosing, site: lung, lesion: adenoma, dosed 76 weeks, study length 76 weeks) was 242 mg/kg/day (inactive).
`C[C@](N)(Cc1ccc(O)c(O)c1)C(=O)O` was tested, and the carcinogen call (mouse, strain B6C3F1, females, in feed, site: any site (literature study), lesion: several types, types named in the paper, dosed 103 weeks, study length 104 weeks) was “negative (inactive)”, the TD50 (mouse, strain B6C3F1, females, in feed, site: lung, lesion: alveolar/bronchiolar adenoma + alveolar/bronchiolar carcinoma, dosed 103 weeks, study length 104 weeks) was 25000 mg/kg/day and the TD50 (mouse, strain B6C3F1, males, in feed, site: kidney, lesion: tubular-cell adenoma + tubular-cell adenocarcinoma, dosed 103 weeks, study length 104 weeks) was 20100 mg/kg/day. For the same compound, the TD50 (rat, strain Fischer 344, females, in feed, site: any site (literature study), lesion: several types, types named in the paper, dosed 103 weeks, study length 104 weeks) was 592 mg/kg/day (inactive) and the carcinogen call (rat, strain Fischer 344, males, in feed, site: any site (literature study), lesion: several types, types named in the paper, dosed 103 weeks, study length 104 weeks) was “negative (inactive)”.
With `ClCOCCCCCCOCCl` the carcinogen call (mouse, strain Ha/ICR, females, i.p., site: abdomen, lesion: sarcoma, dosed 81 weeks, study length 81 weeks) was “negative (inactive)”.
With `O=NN(CC(=O)O)CC(=O)O` the TD50 (rat, strain MRC, females, in drinking water, site: any site (literature study), lesion: several types, types named in the paper, dosed 72 weeks, study length 104 weeks) was 63.9 mg/kg/day (inactive), the TD50 (rat, strain MRC, males, in drinking water, site: any site (literature study), lesion: several types, types named in the paper, dosed 72 weeks, study length 104 weeks) was 76 mg/kg/day (inactive) and the TD50 (rat, strain MRC, males, in drinking water, site: pituitary gland, lesion: one or several types, types not named, dosed 72 weeks, study length 104 weeks) was 66.9 mg/kg/day (inactive).
In the case of `O=NN1CCC[C@H]1C(=O)O`, the TD50 (rat, strain MRC, females, in drinking water, site: any site (literature study), lesion: several types, types named in the paper, dosed 75 weeks, study length 104 weeks) is reported as 6.69 mg/kg/day (inactive) and the carcinogen call (rat, strain MRC, males, in drinking water, site: any site (literature study), lesion: several types, types named in the paper, dosed 75 weeks, study length 104 weeks) is reported as “negative (inactive)”.
With `NC(=O)C(=Cc1ccc([N+](=O)[O-])o1)c1ccco1` the TD50 (hamster, strain Syrian Golden, females, in feed, site: esophagus, lesion: papilloma, dosed 94 weeks, study length 94 weeks) was 2340 mg/kg/day, the TD50 (hamster, strain Syrian Golden, females, in feed, site: forestomach, lesion: several types, types named in the paper, dosed 94 weeks, study length 94 weeks) was 59.1 mg/kg/day and the TD50 (hamster, strain Syrian Golden, females, in feed, site: forestomach, lesion: squamous-cell carcinoma, dosed 94 weeks, study length 94 weeks) was 2340 mg/kg/day. For the same compound, the TD50 (hamster, strain Syrian Golden, males, in feed, site: esophagus, lesion: several types, types named in the paper, dosed 94 weeks, study length 94 weeks) was 328 mg/kg/day, the TD50 (hamster, strain Syrian Golden, males, in feed, site: esophagus, lesion: squamous-cell carcinoma, dosed 94 weeks, study length 94 weeks) was 2180 mg/kg/day and the TD50 (hamster, strain Syrian Golden, males, in feed, site: forestomach, lesion: several types, types named in the paper, dosed 94 weeks, study length 94 weeks) was 30.5 mg/kg/day. It also gave a TD50 (hamster, strain Syrian Golden, males, in feed, site: forestomach, lesion: squamous-cell carcinoma, dosed 94 weeks, study length 94 weeks) of 164 mg/kg/day, a TD50 (mouse, strain CDF1, females, in feed, site: forestomach, lesion: papilloma, dosed 78 weeks, study length 104 weeks) of 714 mg/kg/day and a TD50 (mouse, strain CDF1, females, in feed, site: forestomach, lesion: squamous-cell carcinoma, dosed 78 weeks, study length 104 weeks) of 2540 mg/kg/day. The TD50 (mouse, strain CDF1, females, in feed, site: lung, lesion: one or several types, types not named, dosed 78 weeks, study length 104 weeks) was 16400 mg/kg/day, the TD50 (mouse, strain CDF1, males, in feed, site: forestomach, lesion: papilloma, dosed 78 weeks, study length 104 weeks) was 753 mg/kg/day and the TD50 (mouse, strain CDF1, males, in feed, site: forestomach, lesion: squamous-cell carcinoma, dosed 78 weeks, study length 104 weeks) was 928 mg/kg/day. For the same compound, the TD50 (mouse, strain CDF1, males, in feed, site: lung, lesion: one or several types, types not named, dosed 78 weeks, study length 104 weeks) was 9270 mg/kg/day, the TD50 (mouse, strain DDY, males, in feed, site: any site (literature study), lesion: several types, types named in the paper, dosed 44 weeks, study length 80 weeks) was 60.8 mg/kg/day and the TD50 (mouse, strain DDY, males, in feed, site: forestomach, lesion: several types, types named in the paper, dosed 44 weeks, study length 80 weeks) was 60.8 mg/kg/day. The TD50 (mouse, strain DDY, males, in feed, site: forestomach, lesion: squamous-cell carcinoma, dosed 44 weeks, study length 80 weeks) was 72.9 mg/kg/day, the TD50 (mouse, strain DDY, males, in feed, site: lung, lesion: adenoma, dosed 44 weeks, study length 80 weeks) was 299 mg/kg/day and the TD50 (mouse, strain ICR/Jcl, females, in feed, site: all sites, lesion: leukemia, dosed 62 weeks, study length 62 weeks) was 1800 mg/kg/day. The TD50 (mouse, strain ICR/Jcl, females, in feed, site: forestomach, lesion: several types, types named in the paper, dosed 62 weeks, study length 62 weeks) was 95 mg/kg/day, the TD50 (mouse, strain ICR/Jcl, females, in feed, site: forestomach, lesion: squamous-cell carcinoma, dosed 62 weeks, study length 62 weeks) was 225 mg/kg/day and the TD50 (mouse, strain ICR/Jcl, females, in feed, site: liver, lesion: hepatocellular tumor, dosed 104 weeks, study length 104 weeks) was 7070 mg/kg/day (inactive). The TD50 (mouse, strain ICR/Jcl, males, in feed, site: forestomach, lesion: several types, types named in the paper, dosed 62 weeks, study length 62 weeks) was 90.3 mg/kg/day, the TD50 (mouse, strain ICR/Jcl, males, in feed, site: forestomach, lesion: squamous-cell carcinoma, dosed 62 weeks, study length 62 weeks) was 208 mg/kg/day and the carcinogen call (mouse, strain ICR/Jcl, males, in feed, site: liver, lesion: hepatocellular tumor, dosed 104 weeks, study length 104 weeks) was “negative (inactive)”. The TD50 (rat, strain Sprague-Dawley, females, in feed, site: mammary gland, lesion: adenocarcinoma, dosed 46 weeks, study length 66 weeks) was 26.4 mg/kg/day, the TD50 (rat, strain Sprague-Dawley, females, in feed, site: mammary gland, lesion: several types, types named in the paper, dosed 46 weeks, study length 66 weeks) was 11.4 mg/kg/day and the TD50 (rat, strain Wistar, females, in feed, site: forestomach, lesion: papilloma, dosed 78 weeks, study length 104 weeks) was 424 mg/kg/day. For the same compound, the TD50 (rat, strain Wistar, females, in feed, site: liver, lesion: hemangioendothelial sarcoma, dosed 78 weeks, study length 104 weeks) was 2000 mg/kg/day, the TD50 (rat, strain Wistar, females, in feed, site: mammary gland, lesion: several types, types named in the paper, dosed 78 weeks, study length 104 weeks) was 74.7 mg/kg/day and the TD50 (rat, strain Wistar, males, in feed, site: forestomach, lesion: papilloma, dosed 78 weeks, study length 104 weeks) was 409 mg/kg/day. For the same compound, the TD50 (rat, strain Wistar, males, in feed, site: liver, lesion: hemangioendothelial sarcoma, dosed 78 weeks, study length 104 weeks) was 1600 mg/kg/day and the TD50 (rat, strain Wistar, males, in feed, site: mammary gland, lesion: several types, types named in the paper, dosed 78 weeks, study length 104 weeks) was 1200 mg/kg/day.
In the case of `Nc1ccc(N=Nc2ccc(N)cc2)cc1`, the carcinogen call (mouse, strain BALB/cLacDp, females, in feed, site: liver, lesion: several types, types named in the paper, dosed 60 weeks, study length 132 weeks) is reported as “negative (inactive)”, the TD50 (mouse, strain BALB/cLacDp, females, in feed, site: lung, lesion: several types, types named in the paper, dosed 60 weeks, study length 132 weeks) is reported as 240 mg/kg/day (inactive) and the carcinogen call (mouse, strain BALB/cLacDp, males, in feed, site: liver, lesion: several types, types named in the paper, dosed 60 weeks, study length 132 weeks) is reported as “negative (inactive)”. The TD50 (mouse, strain BALB/cLacDp, males, in feed, site: lung, lesion: several types, types named in the paper, dosed 60 weeks, study length 132 weeks) was 213 mg/kg/day (inactive).
In the case of `CN(C)CCN(Cc1ccco1)c1ccccn1`, the carcinogen call (rat, strain Fischer 344, females, in drinking water, site: liver, lesion: several types, types named in the paper, dosed 94 weeks, study length 130 weeks) is reported as “negative (inactive)”, the TD50 (rat, strain Fischer 344, females, in drinking water, site: thyroid follicle, lesion: several types, types named in the paper, dosed 94 weeks, study length 130 weeks) is reported as 559 mg/kg/day (inactive) and the carcinogen call (rat, strain Fischer 344, males, in drinking water, site: liver, lesion: several types, types named in the paper, dosed 94 weeks, study length 115 weeks) is reported as “negative (inactive)”.
